Some test systems named below: ACHN; HCT-116; 786-0; SR; SNB-19; T47D; IGROV-1; MDA-N; SN12C; NCI-H226; HCC 2998; SK-MEL-2; UO-31; SK-OV-3; Malme-3M; UACC-62; EKVX; MOLT-4; NCI-H460; BT-549.
Holding throughout (assay): growth of human tumour cells (NCI), 48 h

Molecules are shown by their SMILES.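 Interpolation was linear, between the two tested concentrations surrounding the appropriate level; five concentrations were tested over 48 hours in 96-well plates. GI50 is the concentration that inhibits growth by half.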 Active and inactive are the calls of the source. Rule as the data show it: active = GI50 up to about 1.1 µM and inactive = higher. A value given as a limit tells only on which side of the number the result lay.

Turning to `CCCC/C=C1/CCC(CN(C)C)C1=O` (centres undefined), the GI50 in the assay on ACHN is 2.05 µM (inactive); in the assay with HCT-116 it was 1.84 µM (inactive); in the assay with 786-0, 1.55 µM (inactive); in the assay on SR it was 0.456 µM (active); in the assay with SNB-19 it was 5.97 µM (inactive); in the assay on T47D, 1.31 µM (inactive). The GI50 in the assay on IGROV-1 is 3.98 µM (inactive); in the assay with MDA-N, 2.42 µM (inactive); with SN12C, 1.87 µM (inactive); in the assay with NCI-H226 it was 11.1 µM (inactive); in the assay with HCC 2998, 1.56 µM (inactive); in the assay with SK-MEL-2 it was 4.49 µM (inactive). For the same molecule, the GI50 in the assay on UO-31 was 2.3 µM (inactive); with SK-OV-3 it was 12.9 µM (inactive); in the assay on Malme-3M, 1.98 µM (inactive); in the assay with UACC-62 it was 2.09 µM (inactive).
Consider `CC1=CC(=O)/C(=C/N2C(=O)CNC2=S)C(=O)O1`, for which the GI50 in the assay with ACHN, in the assay with HCT-116, in the assay with 786-0, in the assay on SNB-19, with T47D and in the assay with IGROV-1 was > 100 µM (inactive) throughout. Also, the GI50 with MDA-N, with SN12C, in the assay with NCI-H226, in the assay with EKVX, with MOLT-4 and in the assay on NCI-H460 was > 100 µM (inactive) throughout. Moreover, the GI50 in the assay on HCC 2998, in the assay on SK-MEL-2, in the assay with UO-31 and in the assay with SK-OV-3 was > 100 µM (inactive) throughout.
For the molecule `COc1cc2c(cc1OC)C1Cc3ccccc3CN1CCC2` (centres undefined), the GI50 with ACHN was > 100 µM (inactive); in the assay with HCT-116, 91.6 µM (inactive); in the assay on 786-0, > 100 µM (inactive); in the assay with SR it was > 100 µM (inactive); in the assay with SNB-19, > 100 µM (inactive); in the assay on T47D it was 63.7 µM (inactive). Also, the GI50 with IGROV-1 is > 100 µM (inactive); with MDA-N, 45 µM (inactive); in the assay with SN12C, > 100 µM (inactive); with NCI-H226 it was 90.6 µM (inactive); in the assay on EKVX, > 100 µM (inactive); in the assay with MOLT-4 it was 67.6 µM (inactive). The GI50 in the assay on NCI-H460, in the assay with HCC 2998, in the assay on SK-MEL-2, in the assay on SK-OV-3, with Malme-3M and in the assay with UACC-62 was > 100 µM (inactive) throughout.
Regarding `CCS(=O)(=O)c1c2cc(OC)ccc2nc2ccc(OC)cc12`, the GI50 in the assay on ACHN, in the assay on HCT-116, with 786-0, with SR, in the assay with SNB-19 and in the assay with T47D was > 100 µM (inactive) throughout. The GI50 in the assay on IGROV-1, in the assay on MDA-N, in the assay with SN12C, in the assay on NCI-H226, in the assay on EKVX and in the assay with MOLT-4 was > 100 µM (inactive) in each case. Moreover, the GI50 in the assay with NCI-H460, in the assay with HCC 2998, in the assay with SK-MEL-2, with UO-31, in the assay with SK-OV-3 and with Malme-3M was > 100 µM (inactive) each time. The GI50 in the assay on UACC-62 was > 100 µM (inactive).
Consider `O[C@H]1[C@H](O)[C@@H](O)[C@@]2(O)C[C@@H](O)[C@@H]1N2`, for which the GI50 in the assay on ACHN, in the assay on HCT-116, in the assay with 786-0, with SR, in the assay on SNB-19 and in the assay on T47D was > 100 µM (inactive) in each case. Also, the GI50 with IGROV-1, in the assay with MDA-N, in the assay with SN12C, in the assay with NCI-H226, with EKVX and in the assay with MOLT-4 was > 100 µM (inactive) in each case. In addition, the GI50 was > 100 µM (inactive) in the assay with NCI-H460; > 100 µM (inactive) in the assay with HCC 2998; 85.7 µM (inactive) in the assay on UO-31; > 100 µM (inactive) in the assay on SK-OV-3; > 100 µM (inactive) in the assay on Malme-3M; > 100 µM (inactive) with UACC-62.
`Cc1n[n+]([O-])c(C)cc1[N+](=O)[O-]`: the GI50 in the assay with ACHN was 16.6 µM (inactive); with BT-549, 24.7 µM (inactive); with HCT-116, 16.1 µM (inactive); with 786-0, 27.9 µM (inactive); in the assay on SNB-19, 39.4 µM (inactive); in the assay with T47D it was 17.4 µM (inactive). The GI50 with IGROV-1 was 21.8 µM (inactive); with SN12C it was 14.9 µM (inactive); in the assay on NCI-H226, 26.9 µM (inactive); in the assay on EKVX, 23.5 µM (inactive); in the assay on NCI-H460 it was 14 µM (inactive); in the assay with HCC 2998 it was 12.5 µM (inactive). Further, the GI50 was 20.1 µM (inactive) with SK-MEL-2; 16.2 µM (inactive) in the assay with UO-31; 93.8 µM (inactive) with SK-OV-3; 20.9 µM (inactive) in the assay with Malme-3M; 17.7 µM (inactive) in the assay with UACC-62.
As for `O=CC1C(=O)Nc2nc3ccccc3n2C1c1ccccc1` (centres undefined), the GI50 was 17.3 µM (inactive) in the assay with ACHN; 14.1 µM (inactive) in the assay with BT-549; 12.4 µM (inactive) with HCT-116; 12.4 µM (inactive) with 786-0; < 0.01 µM (active) in the assay with T47D; 13.9 µM (inactive) in the assay on IGROV-1. Further, the GI50 in the assay with SN12C is 5.7 µM (inactive); with NCI-H226 it was 17.1 µM (inactive); in the assay on EKVX it was 22.5 µM (inactive); in the assay on MOLT-4, 0.258 µM (active); with NCI-H460, 29.4 µM (inactive); in the assay on SK-MEL-2 it was 17.3 µM (inactive). In addition, the figures for the GI50 with UO-31, with Malme-3M and with UACC-62 were 13.7 µM (inactive), 18.8 µM (inactive) and 15.7 µM (inactive), respectively.
Regarding `COc1cc2c(cc1OCCCCN1CCN(CCCCOc3cc4c(cc3OC)C(=O)N3CCC[C@H]3C=N4)CC1)N=C[C@@H]1CCCN1C2=O`, the GI50 with ACHN is 0.0448 µM (active); in the assay on BT-549, 0.0202 µM (active); in the assay on HCT-116, 0.0216 µM (active); in the assay with 786-0, < 0.014 µM (active); with SR, 1 µM (active); with T47D, < 0.0118 µM (active). Moreover, the GI50 with IGROV-1 was 0.146 µM (active); in the assay on SN12C it was < 0.01 µM (active); in the assay on NCI-H226, < 0.01 µM (active); in the assay with EKVX, 0.281 µM (active); in the assay with MOLT-4, < 0.01 µM (active); in the assay on NCI-H460 it was 0.0234 µM (active). The GI50 in the assay with SK-MEL-2 is 0.0389 µM (active); with UO-31, 0.0798 µM (active); in the assay on SK-OV-3, 4.45 µM (inactive); in the assay on Malme-3M it was 0.031 µM (active); in the assay on UACC-62 it was < 0.0105 µM (active).
As to `O=C1/C(=C/c2ccc(Cl)cc2)N=C(c2ccccc2)N1C1Nc2cc3c(cc2S1)NC(N1C(=O)/C(=C/c2ccc(Cl)cc2)N=C1c1ccccc1)S3` (centres undefined), the GI50 with ACHN was > 100 µM (inactive); with HCT-116, 35.9 µM (inactive); in the assay on 786-0, 87.3 µM (inactive); in the assay with SR, 6.18 µM (inactive); with T47D it was 28.8 µM (inactive); with IGROV-1 it was 47.6 µM (inactive). Further, the GI50 with MDA-N is 45.2 µM (inactive); in the assay with NCI-H226, > 100 µM (inactive); with EKVX it was > 100 µM (inactive); in the assay on MOLT-4, 4.14 µM (inactive); in the assay on NCI-H460, 30.4 µM (inactive); with HCC 2998 it was 61.1 µM (inactive). Also, the results for the GI50 with SK-MEL-2, in the assay on UO-31 and with SK-OV-3 were 88.9 µM (inactive), 80.2 µM (inactive) and > 100 µM (inactive), respectively.
`COc1ccc(/C=C2/C(=O)N(/C=C3\C(=O)Oc4ccccc4C3=O)/C(=N/C(C)=O)N2C)cc1OC`: the GI50 in the assay on ACHN, in the assay with HCT-116, in the assay with 786-0, in the assay with SR, in the assay with T47D and in the assay on IGROV-1 was > 100 µM (inactive) in each case. Moreover, the GI50 in the assay with MDA-N, with SN12C, with NCI-H226, in the assay with EKVX, in the assay on MOLT-4 and in the assay with NCI-H460 was > 100 µM (inactive) in each case. In addition, the GI50 with HCC 2998, in the assay on SK-MEL-2, with SK-OV-3, in the assay on Malme-3M and in the assay with UACC-62 was > 100 µM (inactive) throughout.
Turning to `c1cc2ccc3cc4ncccc4c4ccc(c1)c2c34`, the GI50 was 6.87 µM (inactive) in the assay on ACHN; 12 µM (inactive) in the assay with HCT-116; 18.8 µM (inactive) with 786-0; < 0.01 µM (active) in the assay on SR; 90.8 µM (inactive) in the assay on SNB-19; 3.36 µM (inactive) in the assay on T47D. Moreover, the GI50 with IGROV-1 was 1.32 µM (inactive); in the assay on MDA-N, 41.9 µM (inactive); in the assay on SN12C, 31.4 µM (inactive); in the assay with NCI-H226, 17.5 µM (inactive); with EKVX it was 22.5 µM (inactive); in the assay with MOLT-4 it was 8.59 µM (inactive). For the same molecule, the GI50 in the assay on NCI-H460 is 5.05 µM (inactive); in the assay with HCC 2998, 25.6 µM (inactive); in the assay on SK-MEL-2 it was 16.6 µM (inactive); in the assay on UO-31, 5.43 µM (inactive); with SK-OV-3, 37.2 µM (inactive); in the assay with Malme-3M it was 70.8 µM (inactive). The GI50 in the assay with UACC-62 was 20.6 µM (inactive).
For `CC[C@@]1(O)C(=O)OCc2c1cc1n(c2=O)Cc2cc3cc(O)ccc3nc2-1` [HYDROXYCAMPTOTHECIN], the GI50 was < 0.0116 µM (active) in the assay on ACHN; 0.0543 µM (active) in the assay with BT-549; 0.0241 µM (active) in the assay on 786-0; 0.01 µM (active) in the assay with SR; 0.01 µM (active) with T47D; 0.476 µM (active) in the assay on IGROV-1. Also, the GI50 in the assay on SN12C is 0.0128 µM (active); in the assay with MOLT-4 it was 0.00944 µM (active); with SK-MEL-2 it was 0.473 µM (active); with SK-OV-3, 0.0227 µM (active); in the assay on Malme-3M, 0.0498 µM (active); in the assay on UACC-62, < 0.0075 µM (active).

The values are drawn from ChEMBL document CHEMBL1201862, “PubChem BioAssay data set” (2004).
